Patent US20160151337A1, “ANNELATED PYRROLES AND THEIR USE AS CRAC INHIBITORS” (Grünenthal GmbH, priority 2013, published 2016)

Tests used:
CRAC channel = biological target: T1, CRAC channel (Homo sapiens, UniProt Q96D31); assay: HEK Calcium Influx Assay (FLIPR), inhibition of store-operated Ca2+ entry after thapsigargin store depletion; format: cell-based; conditions: 10 μM compound, HEK293 cells, read-out: % inhib. [@ 10 μM] FLIPR
T1 construct: endogenous in cells; host or cells: HEK293 (ECACC), untransfected
T1 sequence (Q96D31 whole entry): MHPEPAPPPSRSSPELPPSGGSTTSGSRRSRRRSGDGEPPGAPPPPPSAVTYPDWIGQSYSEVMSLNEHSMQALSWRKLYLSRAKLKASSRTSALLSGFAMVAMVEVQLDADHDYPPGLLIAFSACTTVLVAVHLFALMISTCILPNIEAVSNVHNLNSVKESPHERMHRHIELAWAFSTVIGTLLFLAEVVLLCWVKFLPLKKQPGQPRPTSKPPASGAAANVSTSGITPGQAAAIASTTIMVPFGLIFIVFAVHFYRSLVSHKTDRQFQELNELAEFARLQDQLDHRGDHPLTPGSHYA
Procedure, shortened: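 HEK293 cells loaded with Calcium-4 dye in Ca2+-free HBS (pH 7.4), stores depleted with 2 μM thapsigargin for 10 min (100 μM EGTA); after 3 mM CaCl2 re-addition and 15 min steady-state, compounds added and FLIPR signal averaged 9.5–10 min post-dose. IC50 from 8-point 1:3.16 dilutions from 10 μM, normalised to DMSO and non-depleted wells.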

[1] = system: Interleukin-2 (IL-2) production/release in Jurkat T cells; assay: Jurkat IL-2 Production Assay (PHA-stimulated, IL-2 AlphaLisa); format: cell-based; conditions: Homo sapiens, PHA 15 μg/ml, 22 h, inhibition of IL-2 production
Description: The effect of compounds of the invention on Interleukin-2 (IL-2) production/release was tested in the Jurkat T cell line (ECACC) clone E6-1.
Jurkat T cells were cultured in DMEM/F12/Glutamax (Gibco) containing 10% FCS (Gibco), and maintained at 37° C., 5% CO2. Cells were split twice a week [5*10^6 (Mon-Thu) and 1*10^7 (Thu-Mon) cells/50 ml medium in 1-175 ZK culture flasks, respectively].
Prior to experiment, cells were seeded on 96 well plates (Cellstar 96 Well; Cat No. 655180, Greiner bio-one) at a density of 5*10^5 cells/well in DMEM/F12/Glutamax (Gibco) containing 10% FCS (Gibco), and incubated for 60 min at 37° C., 5% CO2. Subsequently, compounds were added and cells were allowed to incubate for 30 min at 37° C., 5% CO2. Cells were then stimulated with 15 μg/ml Phyto-hemagglutinin (PHA; Sigma) for 22 hours at 37° C., 5% CO2.
Before sampling of the supernatants, cells were spun down (200*g/5 min/RT). The amount of IL-2 released into the supernatant was quantified with the human IL-2 AlphaLisa kit (Perkin Elmer) according to manufacturer's instructions. Luminescence proximity measurements were carried out in the Synergy H4 reader (BioTek) employing the fluorescence setting of the reader (ex: 680/30 nm; em: 620/40 nm).
Inhibition of IL-2 production/release in/from Jurkat T cells was quantified as follows: Zero percent inhibition (MAX) was defined as the [IL-2] determined in supernatants derived from cells to which PHA & DMSO-only had been added instead of compound. Hundred percent inhibition (MIN) was defined as the [IL-2] determined in supernatants derived from cells that had been pre-treated with 1 μM CyclosporineA (Sigma) before the addition of 15 μg/ml PHA.
For routine IC50 determinations of compounds, 8 concentrations of a serial dilution (1:3.16) were tested, starting off from 10 μM.

Structure (SMILES) | inhibition at 10 µM (CRAC channel) [%] | IC50 [1] [µM]
Cc1sc(-c2ccccn2)nc1N1CCc2[nH]c(-c3c(F)cccc3F)cc2C1 [Example 6, 4-[2-(2,6-Difluoro-phenyl)-4,5,6,7-tetrahydro-1H-pyrrolo[3,2-c]pyridin-5-yl]-5-methyl-2-pyridin-2-yl-thiazole] | 50 to 70 | < 0.5
Cc1cc([S+](C)[O-])ncc1N1CCc2[nH]c(-c3c(F)cccc3F)cc2C1 (centres unmarked) [Example 70, 2-(2,6-Difluoro-phenyl)-5-[4-methyl-6-(methylsulfinyl)-pyridin-3-yl]-4,5,6,7-tetrahydro-1H-pyrrolo[3,2-c]pyridine] | > 70 | 1 to 5
COCc1ccc(N2CCc3[nH]c(-c4c(F)cccc4F)cc3C2)c(C)c1 [Example 105, 2-(2,6-Difluoro-phenyl)-5-[4-(methoxymethyl)-2-methyl-phenyl]-4,5,6,7-tetrahydro-1H-pyrrolo[3,2-c]pyridine] | > 70 | 0.5 to 1
Cn1nc(C(F)(F)F)cc1N1CCc2[nH]c(-c3c(F)cccc3F)cc2C1 [Example 19, 2-(2,6-Difluoro-phenyl)-5-[2-methyl-5-(trifluoromethyl)-2H-pyrazol-3-yl]-4,5,6,7-tetrahydro-1H-pyrrolo[3,2-c]pyridine] | > 70 | < 0.5
CNS(=O)(=O)c1ccc(N2CCc3[nH]c(C4CCCCC4)cc3C2)c(C)c1 [Example 129] | < 50 | 1 to 5
Cc1cc(C2CC2)ncc1N1CCc2[nH]c(-c3c(F)cccc3F)cc2C1 [Example 75, 5-(6-Cyclopropyl-4-methyl-pyridin-3-yl)-2-(2,6-difluoro-phenyl)-4,5,6,7-tetrahydro-1H-pyrrolo[3,2-c]pyridine] | > 70 | 1 to 5
Cc1cc(C#N)c(F)cc1N1CCc2[nH]c(-c3c(F)cccc3F)cc2C1 [Example 67, 4-[2-(2,6-Difluoro-phenyl)-4,5,6,7-tetrahydro-1H-pyrrolo[3,2-c]pyridin-5-yl]-2-fluoro-5-methyl-benzonitrile] | < 50 | 0.5 to 1
Fc1cccc(F)c1-c1cc2c([nH]1)CCN(c1cccc(C(F)(F)F)c1)C2 [Example 7, 2-(2,6-Difluoro-phenyl)-5-[3-(trifluoromethyl)phenyl]-4,5,6,7-tetrahydro-1H-pyrrolo[3,2-c]pyridine] | < 50 | 1 to 5
Cc1cc(S(C)(=O)=O)ncc1N1CCc2[nH]c(C3CCCC3)cc2C1 [Example 118, 2-Cyclopentyl-5-(4-methyl-6-methylsulfonyl-pyridin-3-yl)-4,5,6,7-tetrahydro-1H-pyrrolo[3,2-c]pyridine] | > 70 | 1 to 5
Cc1cc(OC(F)(F)F)ncc1N1CCc2[nH]c(-c3c(F)cccc3F)cc2C1 [Example 111, 2-(2,6-Difluoro-phenyl)-5-[4-methyl-6-(trifluoromethyloxy)-pyridin-3-yl]-4,5,6,7-tetrahydro-1H-pyrrolo[3,2-c]pyridine] | < 50 | < 0.5
Cc1cc(S(C)(=O)=O)ncc1N1CCc2[nH]c(-c3c(F)cccc3F)c(F)c2C1 [Example 142, 2-(2,6-Difluoro-phenyl)-3-fluoro-5-(4-methyl-6-methylsulfonyl-pyridin-3-yl)-4,5,6,7-tetrahydro-1H-pyrrolo[3,2-c]pyridine] | > 70 | < 0.5
Cc1cc(C)c(-c2cc3c([nH]2)CCN(c2cnc(S(C)(=O)=O)cc2C)C3)cn1 [Example 92, 2-(4,6-Dimethyl-pyridin-3-yl)-5-(4-methyl-6-methylsulfonyl-pyridin-3-yl)-4,5,6,7-tetrahydro-1H-pyrrolo[3,2-c]pyridine] | > 70 | 1 to 5
CNS(=O)(=O)c1ccc(N2CCc3[nH]c(-c4c(F)cccc4F)cc3C2)c(C)c1 [Example 114, 4-[2-(2,6-Difluoro-phenyl)-4,5,6,7-tetrahydro-1H-pyrrolo[3,2-c]pyridin-5-yl]-N,3-dimethyl-benzenesulfonic acid amide] | < 50 | < 0.5
